# Assay results from patent publication US6827926B2, “Metallotetrapyrrolic photosensitizing agents for use in photodynamic therapy” (Miravant Pharmaceuticals, Inc., priority 2001, dated 2004).
# Where two headings read alike, the source gives them in different places.
# Key:
# [1] = test system: normal skin of CD Hairless male rats; assay type: in vivo, rat
# Text: We tested metallo- and metal-free tetrapyrroles systemically (see following section) for normal skin response in relation to the pharmacodynamic distribution of the photosensitizers in CD hairless rats. The skin of CD hairless rats are poorly developed, often referred to as hyperkeratotic, with various sized cystic hair follicles containing concentric lamellar accumulations of keratinaceous material, which are often associated with enlarged sebaceous glands. It quickly became apparent that gallium tetrapyrroles induced a marked clearing of the hyperkeratotic lesions in the treatment areas on the hairless rats. In fact, this clearing could be induced without necrosis of the skin. No other metallotetrapyrrole type produced such effects. This observation led us to assess the metallotetrapyrrolic compounds for skin restructuring effects both topically and systemically and for their ability to reduce hair growth in the following animal models.
# Photosensitizer normal skin response as well as skin healing response, was evaluated using CD Hairless male rats. Photosensitizers were administered in an liposomal egg yolk phospholipid formulation at 1, 1.5 and 2 μmol/kg body weight formulation per dose group as a single bolus intravenous injection given through a marginal tail vein using a 27 gauge needle and a 1 cc tuberculin syringe. Normal skin responses were evaluated by irradiating several spots on the skin of the rat with a 532 nm laser (150 mW/cm^2, 150J, 1 cm diameter) at 1, 6, 24, 48, and 96 hrs post injection. Normal skin responses were evaluated and documented. The time at which the last spot is observed at the concentration injected is reported in the far right hand column in Tables 3, 4, 5 and 6. Skin samples were taken for histological evaluation at days 1, 10, 20 and 22 post light treatment. Rats were housed under normal lighting and all study procedures involving the test article were conducted under light filtered through blue and green Roscolox light filters to prevent photoactivation or degradation of the drug.
# [2] = test system: V79 (Chinese Hamster Lung Fibroblasts) cells; test: In vitro cytotoxicity assay (light EC50, Alamar blue); assay type: cell-based
# Outline: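 V79 cells in phenol-free 5% FBS/DMEM exposed 24 h to photosensitizer at final 0.01–5.0 μM, six replicates, then washed and light-treated, with a dark plate as control. Survival by Alamar blue after 24 h dark incubation, read at 570/600 nm.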
# [3] = test system: normal uninjured rat carotid arteries (medial and adventitial cell populations); test: In vivo rat carotid artery acellularity after PDT; set-up: species or system Sprague Dawley rats; settings: for Max % rat Artery Accelularity: Table 3
# Outline: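 Metallated photosensitizers light-activated in normal uninjured rat left common carotid via balloon catheter introduced through femoral arteriotomy under isoflurane; excitation 575 nm (Ga, Zn, Al, Sn) or 532 nm (Pt). Arteries harvested 3 days post-treatment, H&E-stained; medial and adventitial cell density assessed by light microscopy.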
# [4] = Table 3 porphyrins, 24 h drug incubation, 532 nm, 1.25 J/cm^2, read-out: In Vitro EC50 Light
# [5] = drug dose 1 μMol, 50 J/cm^2, 3 days post treatment
# [6] = Table 3, time of last skin spot observed post injection, 1 μmol, 532 nm laser
Structure (SMILES),"Normal skin Response (1 μmol) ([1]; rat, in vivo)","EC50 [2, 4]","Max % rat Artery Accelularity [3, 5]",other results
"COC(=O)CCC1=C(C)C2=Cc3c(C)c(CN(C)C)c4[n]3[Pt][n]3c(c(C)c(CCC(=O)OC)c3=CC1=N2)=CC1=NC(=C4)C(C)=C1CN(C)C [Example 41, Platinum 3,8-Bis(dimethylaminomethyl) deuteroporphyrin dimethyl ester]",48 h,200 nM,0%,–
"C=CC1=C(C)c2cc3[n-]c(cc4nc(cc5[n-]c(cc1n2)c(C)c5CCC(=O)OC)C(CCC(=O)OC)=C4C)c(C)c3C=C.[Cl-].[Ga+3] [Example 42, Gallium Chloride Protoporphyrin Dimethyl Ester]",–,480 nM,70%,"Normal skin Response (1 μmol) [1, 6]: 6 h"
"CCC1=C(C)C2=NC1=Cc1c(C)c(CC)c3[n]1[Sn]([Cl])([Cl])[n]1c(c(C)c(CCCC(=O)OC)c1=CC1=NC(=C3)C(C)=C1CCCC(=O)OC)=C2 [Example 45, Tin(IV) Dichloride 8,13-diethyl-3,7,12,17-tetramethylporphyrin-2,18-di(butanoic acid methyl ester)]",–,1500 nM,20%,"Normal skin Response (1 μmol) [1, 6]: 24 h"
"CCCOC(=O)CCCC1=C(C)C2=Cc3c(CC)c(C)c4[n]3[Ga]([Cl])[n]3c(c(C)c(CCCC(=O)OCCC)c3=CC1=N2)=CC1=NC(=C4)C(CC)=C1C [Example 50, Gallium 8,13-diethyl-3,7,12,17-tetramethylporphyrin-2,18-di(butanoic acid propyl ester)]",–,400 nM,80%,"Normal skin Response (1 μmol) [1, 6]: 48 h"
"CCOC(=O)CCCCC1=C(C)C2=Cc3c(CC)c(C)c4[n]3[Sn]([Cl])([Cl])[n]3c(c(C)c(CCCCC(=O)OCC)c3=CC1=N2)=CC1=NC(=C4)C(CC)=C1C [Example 51, Tin(IV)dichloride 8,13-diethyl-3,7,12,17-tetramethylporphyrin-2,18-di(pentanoic acid ethyl ester)]",24 h,1700 nM,20%,–
"CCOC(=O)CCCCC1=C(C)c2cc3[n-]c(cc4nc(cc5[n-]c(cc1n2)c(CCCCC(=O)OCC)c5C)C(C)=C4CC)c(C)c3CC.[Cl-].[In+3] [Example 52, Indium Chloride 8,13-diethyl-3,7,12,17-tetramethylporphyrin-2,18-di(pentanoic acid ethyl ester)]",48 h,50 nM,75%,–
"CCOC(=O)CCCCC1=C(C)C2=Cc3c(CC)c(C)c4[n]3[Al-2]35([Cl])[n]6c(c(C)c(CCCCC(=O)OCC)c6=CC1=[N+]23)=CC1=[N+]5C(=C4)C(CC)=C1C [Example 54, Aluminum Chloride 8,13-diethyl-3,7,12,17-tetramethylporphyrin-2,18-di(pentanoic acid ethyl ester)]",24 h,4000 nM,0%,–
"CCOC(=O)CCCCC1=C(C)C2=Cc3c(CC)c(C)c4[n]3[Zn-2]35[n]6c(c(C)c(CCCCC(=O)OCC)c6=CC1=[N+]23)=CC1=[N+]5C(=C4)C(CC)=C1C (centres unmarked) [Example 55, Zinc 8,13-diethyl-3,7,12,17-tetramethylporphyrin-2,18-di(pentanoic acid ethyl ester)]",24 h,4000 nM,0%,–
"CCC1=C(C)c2cc3[n-]c(cc4nc(cc5[n-]c(cc1n2)c(C)c5CC)C(C)=C4CCCN1CCCC1)c(CCCN1CCCC1)c3C.[Pt+2] [Example 77, Platinum 8,13-diethyl-3,7,12,17-tetramethylporphyrin-2,18-di(3-(N-pyrrolidino)propyl)]",–,100 nM,25%,"Normal skin Response (1 μmol) [1, 6]: 96 h"

# The next lines start with results.
"Normal skin Response (1 μmol) ([1]; rat, in vivo)",Structure (SMILES),"EC50 [2, 4]","Max % rat Artery Accelularity [3, 5]",other results
24 h,"CCCOC(=O)CCCCC1=C(C)C2=Cc3c(CC)c(C)c4[n]3[Ga-2]35([Cl])[n]6c(c(C)c(CCCCC(=O)OCCC)c6=CC1=[N+]23)=CC1=[N+]5C(=C4)C(CC)=C1C [Example 56, Gallium Chloride 8,13-diethyl-3,7,12,17-tetramethylporphyrin-2,18-di(pentanoic acid propyl ester)]",400 nM,75%,–
6 h,"CCC1=C(C)c2cc3[n-]c(cc4nc(cc5[n-]c(cc1n2)c(C)c5CC)C(C)=C4CCCCC(=O)OC)c(CCCCC(=O)OC)c3C.[Cl-].[Ga+3] [Example 57, Gallium Chloride 8,13-diethyl-3,7,12,17-tetramethylporphyrin-2,18-di(pentanoic acid methyl ester)]",460 nM,80%,"factor of decrease of normal skin response / skin clearance time versus the parent methyl ester ([1]; rat, in vivo): 8; acellularity (rat artery) ([3]; text b234, 1 μmol/Kg (printed 1 mol/Kg for 57)): 80%"
24 h,"CCC1=C(C)C2=[N+]3C1=Cc1c(C)c(CC)c4[n]1[Sn-2]31([Cl])([Cl])[n]3c(c(C)c(CCC(=O)NC)c3=CC3=[N+]1C(=C4)C(C)=C3CCC(=O)NC)=C2 [Example 58, Tin(IV)dichloride Mesoporphyrin N-methylamide]",1200 nM,10%,–
48 h,"CCC1=C(C)C2=[N+]3C1=Cc1c(C)c(CC)c4[n]1[In-2]31([Cl])[n]3c(c(C)c(CCC(=O)NC)c3=CC3=[N+]1C(=C4)C(C)=C3CCC(=O)NC)=C2 [Example 59, Indium Chloride Mesoporphyrin N-methylamide]",170 nM,60%,–
96 h,"CCC1=C(C)C2=[N+]3C1=Cc1c(C)c(CC)c4[n]1[Pt-2]31[n]3c(c(C)c(CCC(=O)NC)c3=CC3=[N+]1C(=C4)C(C)=C3CCC(=O)NC)=C2 (centres unmarked) [Example 60, Platinum Mesoporphyrin N-methylamide]",120 nM,25%,–
24 h,"CCC1=C(C)C2=[N+]3C1=Cc1c(C)c(CC)c4[n]1[Zn-2]31[n]3c(c(C)c(CCC(=O)N(CC)CC)c3=CC3=[N+]1C(=C4)C(C)=C3CCC(=O)N(CC)CC)=C2 (centres unmarked) [Example 62, Zinc Mesoporphyrin N,N-diethylamide]",4000 nM,0%,–
96 h,"CCC1=C(C)c2cc3[n-]c(cc4nc(cc5[n-]c(cc1n2)c(C)c5CC)C(C)=C4CCCO)c(CCCO)c3C.[Cl-].[In+3] [Example 72, Indium Chloride 8,13-diethyl-3,7,12,17-tetramethylporphyrin-2,18-di(3′-hydroxypropyl)]",40 nM,–,Max % rat Artery Accelularity ([3]; drug dose 0.5 μMol): 40%
24 h,"CCC1=C(C)c2cc3[n-]c(cc4nc(cc5[n-]c(cc1n2)c(C)c5CC)C(C)=C4CCCO)c(CCCO)c3C.[Pt+2] [Example 74, Platinum 8,13-diethyl-3,7,12,17-tetramethylporphryin-2,18-di(3′-hydroxypropyl)]",100 nM,25%,–
96 h,"CCC1=C(C)c2cc3[n-]c(cc4nc(cc5[n-]c(cc1n2)c(C)c5CC)C(C)=C4CCCOC)c(CCCOC)c3C.[Cl-].[In+3] [Example 75, Indium Chloride 8,13-diethyl-3,7,12,17-tetramethylporphyrin-2,18-di(3′-methoxypropyl)]",60 nM,75%,–
6 h,"CCC1=C(C)C2=[N+]3C1=Cc1c(C)c(CC)c4[n]1[Ga-2]31([OH])[n]3c(c(C)c(CCCNCCCO)c3=CC3=[N+]1C(=C4)C(C)=C3CCCNCCCO)=C2 [Example 78, Gallium Hydroxy 8,13-diethyl-3,7,12,17 tetramethylporphyrin-2,18-di((N-3′-hydoxypropyl)-3-aminopronpyl)]",1000 nM,–,Max % rat Artery Accelularity ([3]; drug dose 2 μMol): 10%
96 h,"CCC1=C(CC)C2=[N+]3C1=Nc1c(CC)c(CC)c4[n]1[Sn-2]31([Cl])([Cl])[n]3c(c(C)c(CCC(=O)OC)c3=CC3=[N+]1C(=C4)C(C)=C3CCC(=O)OC)=C2 [Example 82, Tin(IV)dichloride 7,8,12,13-tetraethyl-12,17-dimethyl-10-azaporphyrin-2,18-di(propionic acid methyl ester)]",–,–,"EC50 ([2]; Table 4 azaporphyrins, 575 nm (Pt azaporphyrins 532 nm), 1.25 J/cm^2, read-out: In Vitro EC(50)): 400 nM; Max % Rat Artery Accelularity ([3]; Table 4, drug dose 1 μMol, 575 nm (Pt 532 nm)): 30%"
